{"source": "the NIST ThermoML archive (doi:10.1016/j.jct.2012.02.007)", "key": {"[1]": {"experiment": "mn = molality of the nth substance listed, in mol/kg", "details": "101.3 kPa, Liquid; for mass density: Vibrating tube method; for speed of sound: Sing-around technique in a fixed-path interferometer"}, "[2]": {"experiment": "osmotic coefficient (dimensionless); mn = molality of the nth substance listed, in mol/kg", "details": "323.15 K, Liquid, Vapor Pressure Osmometer"}}, "note": "Numbers after ± are expanded uncertainties."}
{"smiles": "CCCCn1cc[n+](C)c1.N#CN=C=[N-]", "note": "[1-butyl-3-methylimidazolium dicyanamide] + CC(C)O", "values": [{"measurement": "mass density", "setting": "[1]; 308.15 K, m1 = 1.016", "value": "815.02 ± 0.14", "unit": "kg/m3"}, {"measurement": "mass density", "setting": "[1]; 308.15 K, m1 = 1.264", "value": "823.26 ± 0.15", "unit": "kg/m3"}, {"measurement": "mass density", "setting": "[1]; 308.15 K, m1 = 1.523", "value": "831.36 ± 0.15", "unit": "kg/m3"}, {"measurement": "mass density", "setting": "[1]; 308.15 K, m1 = 1.784", "value": "838.97 ± 0.16", "unit": "kg/m3"}, {"measurement": "mass density", "setting": "[1]; 308.15 K, m1 = 2.022", "value": "845.16 ± 0.17", "unit": "kg/m3"}, {"measurement": "mass density", "setting": "[1]; 308.15 K, m1 = 2.519", "value": "857.09 ± 0.18", "unit": "kg/m3"}, {"measurement": "mass density", "setting": "[1]; 308.15 K, m1 = 3.014", "value": "867.77 ± 0.2", "unit": "kg/m3"}, {"measurement": "mass density", "setting": "[1]; 308.15 K, m1 = 3.553", "value": "878.92 ± 0.22", "unit": "kg/m3"}, {"measurement": "speed of sound", "setting": "[1]; 323.15 K, m1 = 0.0497", "value": "1057.6 ± 0.8", "unit": "m/s"}, {"measurement": "speed of sound", "setting": "[1]; 323.15 K, m1 = 0.1012", "value": "1062.8 ± 0.8", "unit": "m/s"}, {"measurement": "speed of sound", "setting": "[1]; 323.15 K, m1 = 0.1541", "value": "1067.8 ± 0.8", "unit": "m/s"}, {"measurement": "speed of sound", "setting": "[1]; 323.15 K, m1 = 0.2003", "value": "1072 ± 0.8", "unit": "m/s"}, {"measurement": "speed of sound", "setting": "[1]; 323.15 K, m1 = 0.2521", "value": "1076.6 ± 0.9", "unit": "m/s"}, {"measurement": "speed of sound", "setting": "[1]; 323.15 K, m1 = 0.5105", "value": "1098.1 ± 0.9", "unit": "m/s"}, {"measurement": "speed of sound", "setting": "[1]; 323.15 K, m1 = 0.7616", "value": "1117.1 ± 0.9", "unit": "m/s"}, {"measurement": "speed of sound", "setting": "[1]; 323.15 K, m1 = 1.016", "value": "1135.3 ± 1", "unit": "m/s"}, {"measurement": "speed of sound", "setting": "[1]; 323.15 K, m1 = 1.264", "value": "1151.6 ± 1", "unit": "m/s"}, {"measurement": "speed of sound", "setting": "[1]; 323.15 K, m1 = 1.523", "value": "1167.9 ± 1", "unit": "m/s"}, {"measurement": "speed of sound", "setting": "[1]; 323.15 K, m1 = 1.784", "value": "1183.3 ± 1.1", "unit": "m/s"}, {"measurement": "speed of sound", "setting": "[1]; 323.15 K, m1 = 2.022", "value": "1196.1 ± 1.1", "unit": "m/s"}, {"measurement": "speed of sound", "setting": "[1]; 323.15 K, m1 = 2.519", "value": "1220.9 ± 1.2", "unit": "m/s"}, {"measurement": "speed of sound", "setting": "[1]; 323.15 K, m1 = 3.014", "value": "1243.4 ± 1.2", "unit": "m/s"}, {"measurement": "speed of sound", "setting": "[1]; 323.15 K, m1 = 3.553", "value": "1267 ± 1.3", "unit": "m/s"}, {"measurement": "mass density", "setting": "[1]; 323.15 K, m1 = 0.0497", "value": "761.85 ± 0.13", "unit": "kg/m3"}, {"measurement": "mass density", "setting": "[1]; 323.15 K, m1 = 0.1012", "value": "764.5 ± 0.1", "unit": "kg/m3"}, {"measurement": "mass density", "setting": "[1]; 323.15 K, m1 = 0.1541", "value": "767.13 ± 0.13", "unit": "kg/m3"}, {"measurement": "mass density", "setting": "[1]; 323.15 K, m1 = 0.2003", "value": "769.37 ± 0.13", "unit": "kg/m3"}, {"measurement": "mass density", "setting": "[1]; 323.15 K, m1 = 0.2521", "value": "771.79 ± 0.13", "unit": "kg/m3"}, {"measurement": "mass density", "setting": "[1]; 323.15 K, m1 = 0.5105", "value": "783.22 ± 0.14", "unit": "kg/m3"}, {"measurement": "mass density", "setting": "[1]; 323.15 K, m1 = 0.7616", "value": "793.27 ± 0.14", "unit": "kg/m3"}, {"measurement": "mass density", "setting": "[1]; 323.15 K, m1 = 1.016", "value": "802.67 ± 0.14", "unit": "kg/m3"}, {"measurement": "mass density", "setting": "[1]; 323.15 K, m1 = 1.264", "value": "811.1 ± 0.2", "unit": "kg/m3"}, {"measurement": "mass density", "setting": "[1]; 323.15 K, m1 = 1.523", "value": "819.36 ± 0.15", "unit": "kg/m3"}, {"measurement": "mass density", "setting": "[1]; 323.15 K, m1 = 1.784", "value": "827.12 ± 0.16", "unit": "kg/m3"}, {"measurement": "mass density", "setting": "[1]; 323.15 K, m1 = 2.022", "value": "833.43 ± 0.17", "unit": "kg/m3"}, {"measurement": "mass density", "setting": "[1]; 323.15 K, m1 = 2.519", "value": "845.59 ± 0.19", "unit": "kg/m3"}, {"measurement": "mass density", "setting": "[1]; 323.15 K, m1 = 3.014", "value": "856.45 ± 0.2", "unit": "kg/m3"}, {"measurement": "mass density", "setting": "[1]; 323.15 K, m1 = 3.553", "value": "867.79 ± 0.22", "unit": "kg/m3"}, {"measurement": "osmotic coefficient", "setting": "[2]; m1 = 0.0572", "value": "0.973 ± 0.012"}, {"measurement": "osmotic coefficient", "setting": "[2]; m1 = 0.0884", "value": "0.925 ± 0.012"}, {"measurement": "osmotic coefficient", "setting": "[2]; m1 = 0.1125", "value": "0.905 ± 0.012"}, {"measurement": "osmotic coefficient", "setting": "[2]; m1 = 0.2169", "value": "0.838 ± 0.013"}, {"measurement": "osmotic coefficient", "setting": "[2]; m1 = 0.3275", "value": "0.795 ± 0.014"}, {"measurement": "osmotic coefficient", "setting": "[2]; m1 = 0.4213", "value": "0.77 ± 0.015"}, {"measurement": "osmotic coefficient", "setting": "[2]; m1 = 0.5065", "value": "0.757 ± 0.015"}, {"measurement": "osmotic coefficient", "setting": "[2]; m1 = 0.8172", "value": "0.712 ± 0.016"}, {"measurement": "osmotic coefficient", "setting": "[2]; m1 = 1.153", "value": "0.682 ± 0.016"}, {"measurement": "osmotic coefficient", "setting": "[2]; m1 = 1.6", "value": "0.665 ± 0.017"}, {"measurement": "osmotic coefficient", "setting": "[2]; m1 = 2.049", "value": "0.641 ± 0.017"}, {"measurement": "osmotic coefficient", "setting": "[2]; m1 = 2.416", "value": "0.619 ± 0.018"}, {"measurement": "osmotic coefficient", "setting": "[2]; m1 = 2.863", "value": "0.592 ± 0.019"}, {"measurement": "osmotic coefficient", "setting": "[2]; m1 = 3.314", "value": "0.565 ± 0.02"}]}
